{"source": "patent US10426777B2", "about": "“Methods used to treat cancer” (THE TRANSLATIONAL GENOMICS RESEARCH INSTITUTE, priority 2009, dated 2019)", "key": {"[1]": {"system": "TROY", "assay": "TROY expression in GBM cells by immunoblotting (Western blot)", "format": "cell-based, Human", "method": "(§1) FIGS. 24A-24D illustrate that PPF treatment decreases TROY expression in GBM cells. FIG. 24A—a Western blot analysis of TROY expression in T98G cells. Cells were treated with PPF at indicated concentrations for 6 hrs, lysed, and cell lysates immunoblotted with anti-TROY antibody. Immunoblotting of α-Tubulin in cell lysates is included as a loading control. FIG. 24B—Western blot analysis of TROY expression in T98G, GBM43, and GBM10 cells. Cells were treated with PPF at indicated concentrations for 24 hrs, lysed, and cell lysates immunoblotted with anti-TROY and α-Tubulin antibodies. FIG. 24C—Western Blot analysis of TROY expression in GBM10 and GBM43 primary glioma cells. Cells were treated with 5 μM PPF, lysed at the indicated time-points, and the lysates immunoblotted with an anti-TROY antibody. Immunoblotting of β-Actin in cell lysates is included as a loading control. FIG. 24D—Western Blot analysis of T98G, GBM10 and GBM43 glioma cells treated with 5 μM PPF for 24 hours. Lysates were immunoblotted with anti-TROY, anti-TNFR1, anti-EGFR, and β-Actin antibodies.\nCell Culture Conditions: Human glioma cell line T98G (ATCC) was maintained in DMEM with high glucose (Invitrogen) supplemented with 10% heat-inactivated fetal bovine serum (FBS) (Invitrogen) in a 37° C., 5% CO2 atmosphere at constant humidity. The primary glioma patient derived xenograft (PDX) lines GBM10 and GBM43 were derived from patient surgical samples and maintained as flank xenografts in immunodeficient mice. GBM10 and GBM43 flank tumor were resected, brought to single cell suspension via mechanical dissociation, and maintained in DMEM+10% FBS for in vitro experiments. In the experiments with FBS stimulation, the cells were serum starved (DMEM+0.1% Bovine Serum Albumin (BSA)) for 16 hours before stimulation with 10% FBS in DMEM.\nReferring now to FIGS. 24A, 24B, 24C, and 24D: The inventors investigated if PPF could be utilized pharmacologically to decrease TROY expression in GBM cells. The long-term established cell line T98G was first utilized to test the efficacy of PPF. Cells were treated with increasing concentration of PPF, 1 to 20 μM, lysed, and TROY expression assessed by immunoblotting. Briefly, monolayers of cells were washed in phosphate-buffered saline (PBS) containing 1 mM phenylmethylsulfonylfluoride and 1 mM sodium orthovanadate and then lysed in 2×SDS sample buffer containing protease and phosphatase inhibitors. Protein concentrations were determined using the BCA Assay (Pierce). Thirty micrograms of total protein was loaded per lane and separated by SDS-PAGE. […] Protein bands were detected using SuperSignal Chemiluminescent Substrate (Pierce) with a UVP BioSpectrum 500 Imaging System."}, "[2]": {"system": "TNFR1", "assay": "TNFR1 expression in glioma cells by Western blot", "format": "cell-based, Human", "conditions": "T98G, GBM10 and GBM43 cells, 5 μM PPF, 24 hours", "method": "as §1, with “FIG. 24D—Western Blot analysis of T98G, GBM10 and GBM43 glioma cells treated with 5 μM PPF for 24 hours. Lysates were immunoblotted with anti-TROY, anti-TNFR1, anti-EGFR, and β-Actin antibodies.” left out\n(§2) Referring now to FIGS. 24A, 24B, 24C, and 24D: The inventors investigated if PPF could be utilized pharmacologically to decrease TROY expression in GBM cells. […] Cells were treated with increasing concentration of PPF, 1 to 20 μM, lysed, and TROY expression assessed by immunoblotting. […] Protein concentrations were determined using the BCA Assay (Pierce). […] Protein bands were detected using SuperSignal Chemiluminescent Substrate (Pierce) with a UVP BioSpectrum 500 Imaging System."}, "[3]": {"system": "EGFR", "assay": "EGFR expression in glioma cells by Western blot", "format": "cell-based, Human", "conditions": "T98G, GBM10 and GBM43 cells, 5 μM PPF, 24 hours", "method": "as §1, with “FIG. 24D—Western Blot analysis of T98G, GBM10 and GBM43 glioma cells treated with 5 μM PPF for 24 hours. Lysates were immunoblotted with anti-TROY, anti-TNFR1, anti-EGFR, and β-Actin antibodies.” left out\nas §2"}, "[4]": {"system": "T98G, GBM10, and GBM43 cells", "assay": "Glioma cell proliferation by automated cell counting", "format": "cell-based, Human", "conditions": "doses up to 500 μM, 0-144 hours", "method": "(§3) FIG. 25A—T98G, GBM43, and GBM10 cells were incubated with increasing concentrations of PPF (0, 5, 50, and 500 μM). After 0, 48, 96 and 144 hours of treatment, cell were trypsinized and counted using an automated cell counter. FIG. 24B—GBM43, GBM10, and T98G glioma cells were treated with increasing doses of PPF (0.5, 1, 5, 10, and 20 μM) in triplicate. The Cell Titer Glo (Promega) reagent was used to measure survival. Raw values were normalized on a plate-by-plate basis such that 100% cell viability was equivalent to the mean of vehicle wells and 0% cell viability was equivalent to the mean of the MG132 positive control. The normalized data was used to assess viability of glioma cells after PPF treatment.\n(§4) Referring now to FIGS. 25A and 25B: To determine if PPF influences glioma cell proliferation, the inventors treated T98G, GBM10, and GBM43 cells with increasing concentrations of PPF and evaluated cell proliferation over the course of 144 hours. Briefly, 1.25×10^5 cells were seeded (n=3) in 12-well plates in 1 mL of DMEM supplemented with 10% FBS and allowed to attach at 37° for 16 hrs. […] After 0, 48, 96 and 144 hours of treatment, the cells were trypsinized and counted using the automated cell counter. […] Subsequently, 100 μL of CellTiterGlo® reagent was added to each well and luminescence was measured using Envision Reader. […]"}, "[5]": {"system": "T98G, GBM10, and GBM43 cells", "assay": "CellTiterGlo glioma cell cytotoxicity / viability assay", "format": "cell-based, Human", "conditions": "all three GBM cell lines; PPF 0.5 to 20 μM; 72 hours", "method": "as §3, §4"}, "[6]": {"system": "T98G and GBM43 cells", "assay": "Clonogenic survival assay with TMZ or radiation", "format": "cell-based, Human", "method": "(§5) FIGS. 26A-26C depict that PPF sensitizes GBM cells to TMZ and radiotherapy. FIG. 26A—A clonogenic assay was used to assess T98G and GBM43 cells survival after TMZ and radiation treatment. Cells were pre-treated with 5 μM PPF for 24 hours, and then either treated with 250 μM TMZ for 24 hours or exposed to 2 Gy radiation. Graph depicts the surviving fraction in the treated cells compared to vehicle (VC) treated or non-treated (NT) cells, **p<0.01. FIG. 26B—T98G glioma cells were treated with vehicle, PPF (5 μM), TMZ (250 μM), and PPF in combination with TMZ. TMZ-induced apoptosis was assayed by immunoblot analysis of cell lysates with an antibody to cleaved PARP. Immunoblotting for α-Tubulin was included as a loading control. FIG. 26C—T98G, GBM10, and GBM43 cells were treated with PPF (5 μM), lysed, and then immunoblotted to assess the activation of AKT and NF-κB. Immunoblotting for […] is included as a loading control.\n(§6) Referring now to FIGS. 26A, 26B, and 26C: Knockdown of TROY expression with shRNA decreases TMZ resistance in GBM cells in vitro (See Reference 42). […] Following combination therapy, cells were trypsinized, counted, and plated in a 6-well culture dish at densities of 100, 250, and 500 cells per well in triplicate. Cells were incubated for 12 days then fixed, stained with 0.5% crystal violet solution, and counted manually by blinded observers. […]"}, "[7]": {"system": "cleaved PARP", "assay": "Apoptosis by immunoblot for cleaved PARP", "format": "cell-based, Human", "conditions": "T98G cells; PPF 5 μM, TMZ 250 μM", "method": "as §5, §6"}, "[8]": {"system": "AKT", "assay": "AKT activation (phosphorylation) by immunoblot", "format": "cell-based, Human", "conditions": "T98G and GBM43 cells; PPF 5 μM", "method": "as §5, §6"}, "[9]": {"system": "NF-κB", "assay": "NF-κB activation (phosphorylation) by immunoblot", "format": "cell-based, Human", "conditions": "T98G and GBM43 cells; PPF 5 μM", "method": "as §5, §6"}, "[10]": {"system": "T98G, GBM10, and GBM43 glioma cells", "assay": "Matrigel invasion assay", "format": "cell-based, Human", "conditions": "5 μM PPF, 24 hours, 10% FBS", "method": "(§7) FIGS. 27A and 27B depict that PPF suppresses GBM cell invasion and Rac1 activation. FIG. 27A—T98G, GBM10, and GBM43 glioma cells were treated with 5 μM PPF and invasion was assayed over 24 hours utilizing a Matrigel invasion assay, *p<0.05. FIG. 27B—T98G glioma cells were serum starved, pre-incubated with 5 μM PPF or vehicle for 1 hour, and then stimulated with 10% FBS for 2-10 mins. Cell lysates were harvested and equal concentrations of protein were assessed for Rac1 activation.\n(§8) Referring now to FIGS. 27A and 27B: The inventors next examined whether PPF inhibited TROY dependent glioma cell invasion. […] Briefly, 5.0×10^5 glioma cells were seeded in 100-mm diameter culture dishes and incubated overnight at 37° C. Subsequently, cells were serum starved for 16 hours at 37° C. Cells were then harvested, re-suspended in growth factor reduced Matrigel (Becton Dickinson) (1.0×10^5 cells/50 uL), added in triplicates to collagen-coated transwell chambers, and allowed to invade through Matrigel in presence of 10% FBS and/or 5 μM PPF. After incubation for 24 hours at 37° C., non-invaded cells were scrapped off the upper side of the membrane and cells invaded to the other side of the membrane were fixed with 4% paraformaldehyde (PFA) (Affymetrix) and stained with DAPI (Invitrogen). Nuclei of invaded cells were counted in five high power fields (HPF) with a 20× objective."}, "[11]": {"system": "Rac1", "assay": "Rac1 activation assay after FBS stimulation", "format": "cell-based, Human", "conditions": "T98G cells; 5 μM PPF 1 hour, then 10% FBS 2-10 mins", "method": "as §7, §8"}, "[12]": {"system": "T98G, GBM10, and GBM43 cells", "assay": "Lamellipodia formation and membrane ruffling (F-actin staining)", "format": "cell-based, Human", "conditions": "5 μM PPF 1 hour, then 10% FBS 5 min", "method": "FIGS. 28A and 28B depict that PPF suppresses GBM cell membrane ruffling. FIG. 28A—GBM43 cells were preincubated with 5 μM PPF or vehicle for 1 hour prior to 10% FBS stimulation for 5 min. After FBS stimulation, cells were fixed, permeabilized, and stained for F-actin. For each experimental condition, at least 12 images were taken randomly. Arrowhead indicates membrane ruffles. FIG. 28B—Graph depicts the average lamellipodia in T98G, GBM10, and GBM43 cells in the presence or absence of 10% FBS with or without 5 μM PPF as indicated. Lamellipodia were traced using Image J software.\nReferring now to FIGS. 28A and 28B: The inventors investigated lamellipodia formation and membrane ruffling. Briefly, glioma cells were plated onto 10-well glass slides pre-coated with 10 μg/ml laminin at the density of 3000 cells/well for 24 hours at 37° C. Subsequently, cells were serum starved for 16 hours. The cells were pre-incubated with 5 μM PPF or vehicle for 1 hour prior to 10% FBS stimulation for 5 min. After FBS stimulation, cells were fixed in 4% PFA, permeabilized with 0.1% Triton X-100, and incubated with Alexa Fluor® 555 Phalloidin (Invitrogen) to stain for F-actin. Slides were mounted with ProLong® reagent with DAPI and imaged using a Zeiss LSM 510 microscope. For each experimental condition, at least 12 images were randomly taken. Lamellipodia were traced using ImageJ software."}, "[13]": {"system": "CNS-1 rat model", "conditions": "systemic PPF treatment, via modulation of microglia; cited from earlier work"}, "[14]": {"system": "microglia", "conditions": "Reference 41; cited from earlier work"}, "[15]": {"system": "TROY", "conditions": "Reference 41; cited from earlier work"}, "[16]": {"conditions": "clinical trials, cited from earlier work"}}}
{"smiles": "CCCn1cnc2c1c(=O)n(CCCCC(C)=O)c(=O)n2C", "note": "[PPF, 3-methyl-1-(5-oxohexyl)-7-propyl-3,7-dihydro-1H-purine-2,6-dione]", "values": [{"measurement": "TROY expression over time", "setting": "[1]; GBM10 and GBM43 cells, 5 μM PPF for varying lengths of time", "value": "decreased in a time-dependent manner"}, {"measurement": "TROY expression", "setting": "[1]; T98G cells, 1 μM PPF, 6 hrs", "value": "significant suppression"}, {"measurement": "TROY expression", "setting": "[1]; T98G cells, PPF 1 to 20 μM, 6 hrs", "value": "decreased in concentration dependent manner"}, {"measurement": "TROY expression", "setting": "[1]; T98G, GBM10 and GBM43 cells, 5 μM PPF, 24 hrs", "value": "effective in lowering TROY expression"}, {"measurement": "TNFR1 expression", "setting": "[2]", "value": "did not affect"}, {"measurement": "EGFR expression", "setting": "[3]", "value": "did not affect"}, {"measurement": "proliferation of glioma cells", "setting": "[4]", "value": "did not affect"}, {"measurement": "cell viability", "setting": "[5]", "value": "negligible loss of cell viability"}, {"measurement": "surviving fraction, PPF and 2Gy radiation compared to 2Gy radiation alone", "setting": "[6]; GBM cells, 5 μM PPF 24 hours then 2 Gy", "value": "significantly decreased"}, {"measurement": "surviving fraction, PPF in combination with TMZ compared to TMZ alone", "setting": "[6]; T98G and GBM43, 5 μM PPF 24 hours then 250 μM TMZ 24 hours", "value": "significantly decreased"}, {"measurement": "cleaved PARP, PPF and TMZ compared to TMZ alone", "setting": "[7]", "value": "increase"}, {"measurement": "AKT phosphorylation", "setting": "[8]", "value": "effectively decreased"}, {"measurement": "NF-κB phosphorylation", "setting": "[9]", "value": "effectively decreased"}, {"measurement": "glioma cell invasion", "setting": "[10]", "value": "significantly inhibited"}, {"measurement": "Rac1 activation", "setting": "[11]", "value": "inhibited"}, {"measurement": "lamellipodia formation and membrane ruffling", "setting": "[12]", "value": "significantly decreased"}, {"measurement": "tumor growth", "setting": "[13]", "value": "decreased"}, {"measurement": "migration of microglia", "setting": "[14]", "value": "inhibit"}, {"measurement": "TROY expression in microglia", "setting": "[15]", "value": "decreasing"}, {"measurement": "therapeutic efficacy", "setting": "[16]; Alzheimer's disease and vascular dementia", "value": "therapeutic efficacy"}, {"measurement": "side effect profile", "setting": "[16]; Reference 39", "value": "minimal side effect profile"}]}
